According to patent US7595401B2, “Therapeutic compounds and their use in cancer” (Myriad Pharmaceuticals, Inc., priority 2006, dated 2009):

Tested on: purified human Hsp90
Assay: Binding Assay: fluorescence polarization with BODIPY-labeled geldanamycin
Conditions: 5 μM compound, BODIPY-GM 10 nM, Hsp90 30 nM
Method in brief: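 Compounds in 2% DMSO final compete with 10 nM BODIPY-GM for 30 nM purified human Hsp90, incubated overnight at room temperature in pH 7.3 HEPES buffer containing Na2MoO4 and DTT. Polarization (mP, ex/em 485/530) normalized to DMSO gives percent inhibition; autofluorescence-confounded data excluded.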

| % Inhibition at 5 μM Compound Concentration | Structure (SMILES) |
| --- | --- |
| 0% | COc1cc(CCn2cnc(N)c3nc(Sc4cc5c(cc4Br)OCO5)nc2-3)cc(OC)c1OC [Example 92, 8-(6-bromo-benzo[1,3]dioxol-5-ylsulfanyl)-3-[2-(3,4,5-trimethoxy-phenyl)-ethyl]-3H-purin-6-ylamine] |
| 0% | Cc1cc(C)c(CCn2cnc(N)c3nc(Sc4cc5c(cc4Br)OCO5)nc2-3)c(C)c1 [Example 94, 8-(6-bromo-benzo[1,3]dioxol-5-ylsulfanyl)-3-[2-(2,4,6-trimethyl-phenyl)-ethyl]-3H-purin-6-ylamine] |
| 2% | Nc1ncn(CC2(c3ccc(Cl)cc3)CCC2)c2nc(Sc3cc4c(cc3Br)OCO4)nc1-2 [Example 96, 8-(6-bromo-benzo[1,3]dioxol-5-ylsulfanyl)-3-[1-(4-chloro-phenyl)-cyclobutylmethyl]-3H-purin-6-ylamine] |
| 0% | COc1ccc(OC)c(Sc2nc3c(N)ncn(CCc4ccc(Cl)cc4F)c-3n2)c1 [Example 98, 3-[2-(4-chloro-2-fluoro-phenyl)-ethyl]-8-(2,5-dimethoxy-phenylsulfanyl)-3H-purin-6-ylamine] |
| 39% | CCC(C)C(Cn1cnc(N)c2nc(Sc3cc4c(cc3Br)OCO4)nc1-2)c1ccccc1 (centres unmarked) [Example 100, 8-(6-bromo-benzo[1,3]dioxol-5-ylsulfanyl)-3-(3-methyl-2-phenyl-pentyl)-3H-purin-6-ylamine] |
| 39% | Nc1ncn(CC(c2ccccc2)C2CCCC2)c2nc(Sc3cc4c(cc3Br)OCO4)nc1-2 (centres unmarked) [Example 102, 8-(6-bromo-benzo[1,3]dioxol-5-ylsulfanyl)-3-(2-cyclopentyl-2-phenyl-ethyl)-3H-purin-6-ylamine] |
| 38% | COc1ccc(OC)c(Sc2nc3c(N)ncn(CC(c4ccccc4)C4CCCC4)c-3n2)c1 (centres unmarked) [Example 104, 3-(2-cyclopentyl-2-phenyl-ethyl)-8-(2,5-dimethoxy-phenylsulfanyl)-3H-purin-6-ylamine] |
| 41% | CCC(C)C(Cn1cnc(N)c2nc(Sc3cc(OC)ccc3OC)nc1-2)c1ccccc1 (centres unmarked) [Example 106, 8-(2,5-dimethoxy-phenylsulfanyl)-3-(3-methyl-2-phenyl-pentyl)-3H-purin-6-ylamine] |
| 0% | COc1ccc(OC)c(Sc2nc3c(N)ncnc3n2CC(O)c2ccc(Cl)cc2Cl)c1 (centres unmarked) [Example 107, 2-[6-Amino-8-(2,5-dimethoxy-phenylsulfanyl)-purin-9-yl]-1-(2,4-dichloro-phenyl)ethanol] |
| 30% | COc1ccc(OC)c(Sc2nc3c(N)ncn(CC(O)c4ccc(Cl)cc4Cl)c-3n2)c1 (centres unmarked) [Example 108, 2-[6-amino-8-(2,5-dimethoxy-phenylsulfanyl)-purin-3-yl]-1-(2,4-dichloro-phenyl)ethanol] |
| 16% | Nc1ncn(CCc2cccc(F)c2)c2nc(Sc3cc4c(cc3Br)OCO4)nc1-2 [Example 110, 8-(6-bromo-benzo[1,3]dioxol-5-ylsulfanyl)-3-[2-(3-fluoro-phenyl)-ethyl]-3H-purin-6-ylamine] |
| 0% | CCOc1cc(CCn2cnc(N)c3nc(Sc4cc(OC)ccc4OC)nc2-3)ccc1OC [Example 112, 8-(2,5-dimethoxy-phenylsulfanyl)-3-[2-(3-ethoxy-4-methoxy-phenyl)-ethyl]-3H-purin-6-ylamine] |
| 14% | COc1ccc(OC)c(Sc2nc3c(N)ncn(CC(c4ccccc4)C(C)C)c-3n2)c1 (centres unmarked) [Example 114, 8-(2,5-dimethoxy-phenylsulfanyl)-3-(3-methyl-2-phenyl-butyl)-3H-purin-6-ylamine] |
| 0% | COc1ccc(OC)c(Sc2nc3c(N)ncn(CCc4cc(C)ccc4C)c-3n2)c1 [Example 116, 8-(2,5-dimethoxy-phenylsulfanyl)-3-[2-(2,5-dimethyl-phenyl)-ethyl]-3H-purin-6-ylamine] |
| 54% | CCOc1cc(CCn2c(Sc3cc4c(cc3Br)OCO4)nc3c(N)ncnc32)ccc1OC [Example 117, 8-(6-Bromo-benzo[1,3]dioxol-5-ylsulfanyl)-9-[2-(3-ethoxy-4-methoxy-phenyl)-ethyl]-9H-purin-6-ylamine] |
| 0% | CCOc1cc(CCn2cnc(N)c3nc(Sc4cc5c(cc4Br)OCO5)nc2-3)ccc1OC [Example 118, 8-(6-bromo-benzo[1,3]dioxol-5-ylsulfanyl)-3-[2-(3-ethoxy-4-methoxy-phenyl)-ethyl]-3H-purin-6-ylamine] |
| 15% | COc1ccc(OC)c(Sc2nc3c(N)ncnc3n2CC(c2ccc(Cl)cc2)C(C)C)c1 (centres unmarked) [Example 119, 9-[2-(4-Chloro-phenyl)-3-methyl-butyl]-8-(2,5-dimethoxy-phenylsulfanyl)-9H-purine-6-ylamine] |
| 0% | COc1ccc(OC)c(Sc2nc3c(N)ncn(CC(c4ccc(Cl)cc4)C(C)C)c-3n2)c1 (centres unmarked) [Example 120, 3-[2-(4-chloro-phenyl)-3-methyl-butyl]-8-(2,5-dimethoxy-phenylsulfanyl)-3H-purine-6-ylamine] |
| 54% | COc1ccc(OC)c(Sc2nc3c(N)ncnc3n2CCc2ccc(F)cc2F)c1 [Example 121, 9-[2-(2,4-Difluoro-phenyl)-ethyl]-8-(2,5-dimethoxy-phenylsulfanyl)-9H-purine-6-ylamine] |
| 0% | COc1ccc(OC)c(Sc2nc3c(N)ncn(CCc4c(F)cccc4Cl)c-3n2)c1 [Example 123, 3-[2-(2-chloro-6-fluoro-phenyl)-ethyl]-8-(2,5-dimethoxy-phenylsulfanyl)-3H-purine-6-ylamine] |
| 12% | Cc1ccc(C)c(CCn2cnc(N)c3nc(Sc4cc5c(cc4Br)OCO5)nc2-3)c1 [Example 125, 8-(6-bromo-benzo[1,3]dioxol-5-ylsulfanyl)-3-[2-(2,5-dimethyl-phenyl)-ethyl]-3H-purin-6-ylamine] |
| 51% | CC(C)C(Cn1cnc(N)c2nc(Sc3cc4c(cc3Br)OCO4)nc1-2)c1ccccc1 (centres unmarked) [Example 127, 8-(6-bromo-benzo[1,3]dioxol-5-ylsulfanyl)-3-(3-methyl-2-phenyl-butyl)-3H-purin-6-ylamine] |

Same assay, conditions: BODIPY-GM 10 nM, Hsp90 30 nM

| IC50 | Structure (SMILES) |
| --- | --- |
| 190 nM | Cc1cc(C)c(CCn2c(Sc3cc4c(cc3Br)OCO4)nc3c(N)ncnc32)c(C)c1 [Example 93, 8-(6-Bromo-benzo[1,3]dioxol-5-ylsulfanyl)-9-[2-(2,4,6-trimethyl-phenyl)-ethyl]-9H-purin-6-ylamine] |
| > 3000 nM | Nc1ncnc2c1nc(Sc1cc3c(cc1Br)OCO3)n2CC1(c2ccc(Cl)cc2)CCC1 [Example 95, 8-(6-Bromo-benzo[1,3]dioxol-5-ylsulfanyl)-9-[1-(4-chloro-phenyl)-cyclobutylmethyl]-9H-purin-6-ylamine] |
| 450 nM | COc1ccc(OC)c(Sc2nc3c(N)ncnc3n2CCc2ccc(Cl)cc2F)c1 [Example 97, 9-[2-(4-Chloro-2-fluoro-phenyl)-ethyl]-8-(2,5-dimethoxy-phenylsulfanyl)-9H-purin-6-ylamine] |
| 300 nM | CCC(C)C(Cn1c(Sc2cc3c(cc2Br)OCO3)nc2c(N)ncnc21)c1ccccc1 (centres unmarked) [Example 99, 8-(6-Bromo-benzo[1,3]dioxol-5-ylsulfanyl)-9-(3-methyl-2-phenyl-pentyl)-9H-purin-6-ylamine] |
| > 3000 nM | Nc1ncnc2c1nc(Sc1cc3c(cc1Br)OCO3)n2CC(c1ccccc1)C1CCCC1 (centres unmarked) [Example 101, 8-(6-Bromo-benzo[1,3]dioxol-5-ylsulfanyl)-9-(2-cyclopentyl-2-phenyl-ethyl)-9H-purin-6-ylamine] |
| > 1000 nM | COc1ccc(OC)c(Sc2nc3c(N)ncnc3n2CC(c2ccccc2)C2CCCC2)c1 (centres unmarked) [Example 103, 9-(2-Cyclopentyl-2-phenyl-ethyl)-8-(2,5-dimethoxy-phenylsulfanyl)-9H-purin-6-ylamine] |
| > 1000 nM | CCC(C)C(Cn1c(Sc2cc(OC)ccc2OC)nc2c(N)ncnc21)c1ccccc1 (centres unmarked) [Example 105, 8-(2,5-Dimethoxy-phenylsulfanyl)-9-(3-methyl-2-phenyl-pentyl)-9H-purin-6-ylamine] |
| 300 nM | Nc1ncnc2c1nc(Sc1cc3c(cc1Br)OCO3)n2CCc1cccc(F)c1 [Example 109, 8-(6-Bromo-benzo[1,3]dioxol-5-ylsulfanyl)-9-[2-(3-fluoro-phenyl)-ethyl]-9H-purin-6-ylamine] |
| 10000 nM | CCOc1cc(CCn2c(Sc3cc(OC)ccc3OC)nc3c(N)ncnc32)ccc1OC [Example 111, 8-(2,5-Dimethoxy-phenylsulfanyl)-9-[2-(3-ethoxy-4-methoxy-phenyl)-ethyl]-9H-purin-6-ylamine] |
| 550 nM | COc1ccc(OC)c(Sc2nc3c(N)ncnc3n2CC(c2ccccc2)C(C)C)c1 (centres unmarked) [Example 113, 8-(2,5-Dimethoxy-phenylsulfanyl)-9-(3-methyl-2-phenyl-butyl)-9H-purin-6-ylamine] |
| 110 nM | COc1ccc(OC)c(Sc2nc3c(N)ncnc3n2CCc2cc(C)ccc2C)c1 [Example 115, 8-(2,5-Dimethoxy-phenylsulfanyl)-9-[2-(2,5-dimethyl-phenyl)-ethyl]-9H-purin-6-ylamine] |
| 300 nM | CCOc1cc(CCn2c(Sc3cc4c(cc3Br)OCO4)nc3c(N)ncnc32)ccc1OC [Example 117, 8-(6-Bromo-benzo[1,3]dioxol-5-ylsulfanyl)-9-[2-(3-ethoxy-4-methoxy-phenyl)-ethyl]-9H-purin-6-ylamine] |
| 520 nM | COc1ccc(OC)c(Sc2nc3c(N)ncnc3n2CCc2ccc(F)cc2F)c1 [Example 121, 9-[2-(2,4-Difluoro-phenyl)-ethyl]-8-(2,5-dimethoxy-phenylsulfanyl)-9H-purine-6-ylamine] |
| 85 nM | COc1ccc(OC)c(Sc2nc3c(N)ncnc3n2CCc2c(F)cccc2Cl)c1 [Example 122, 9-[2-(2-chloro-6-fluoro-phenyl)-ethyl]-8-(2,5-dimethoxy-phenylsulfanyl)-9H-purine-6-ylamine] |
| 220 nM | Cc1ccc(C)c(CCn2c(Sc3cc4c(cc3Br)OCO4)nc3c(N)ncnc32)c1 [Example 124, 8-(6-Bromo-benzo[1,3]dioxol-5-ylsulfanyl)-9-[2-(2,5-dimethyl-phenyl)-ethyl]-9H-purin-6-ylamine] |
| 300 nM | CC(C)C(Cn1c(Sc2cc3c(cc2Br)OCO3)nc2c(N)ncnc21)c1ccccc1 (centres unmarked) [Example 126, 8-(6-Bromo-benzo[1,3]dioxol-5-ylsulfanyl)-9-(3-methyl-2-phenyl-butyl)-9H-purin-6-ylamine] |
